Measurements: the NIST ThermoML archive (doi:10.1016/j.fluid.2004.10.028)

Test: wn = mass fraction of the nth substance listed
Details: Liquid, Capillary tube (Ostwald / Ubbelohde) method

O=S(=O)([O-])[O-].[Na+].[Na+] [sodium sulfate] + O
viscosity [mPa·s]
Details	100 kPa	10000 kPa	20000 kPa	30000 kPa	40000 kPa
298.15 K, w1 = 0.015	0.933	0.9335	0.9365	0.9399	0.942
298.15 K, w1 = 0.03	0.9746	0.9759	0.9769	0.9799	0.9812
298.15 K, w1 = 0.05	1.035	1.04	1.041	1.042	1.044
298.15 K, w1 = 0.07	1.119	1.119	1.119	1.121	1.122
298.15 K, w1 = 0.1	1.252	1.255	1.256	1.257	1.258
298.15 K, w1 = 0.15	1.545	1.548	1.55	1.551	1.554
298.15 K, w1 = 0.2	1.963	1.965	1.966	1.967	1.968
303.15 K, w1 = 0.23	1.993	1.993	1.996	1.999	2.002
303.15 K, w1 = 0.26	2.243	2.245	2.249	2.253	2.259
323.05 K, w1 = 0.1	0.7656	0.767	0.771	0.7745	0.778
323.15 K, w1 = 0.03	0.5972	0.5991	0.6012	0.6054	0.609
323.15 K, w1 = 0.2	1.168	1.17	1.176	1.181	1.185
323.15 K, w1 = 0.23	1.333	1.336	1.34	1.346	1.353
323.15 K, w1 = 0.26	1.504	1.505	1.509	1.515	1.523
323.25 K, w1 = 0.07	0.6825	0.6846	0.6875	0.6902	0.6935
323.4 K, w1 = 0.15	0.9286	0.9316	0.9354	0.9401	0.945
323.7 K, w1 = 0.015	0.5669	0.5741	0.5795	0.5821	0.5835
323.8 K, w1 = 0.05	0.6285	0.632	0.633	0.636	0.6385
347.2 K, w1 = 0.05	0.4434	0.4465	0.4496	0.453	0.4587
347.6 K, w1 = 0.07	0.4733	0.4764	0.4795	0.4824	0.4875
347.9 K, w1 = 0.2	0.7892	0.7944	0.8004	0.8053	0.811
348.15 K, w1 = 0.015	0.395	0.3977	0.4006	0.4038	0.4087
348.35 K, w1 = 0.03	0.4107	0.4134	0.4169	0.42	0.4225
348.42 K, w1 = 0.1	0.5232	0.5267	0.5294	0.534	0.5399
348.6 K, w1 = 0.26	1.01	1.017	1.023	1.029	1.041
348.7 K, w1 = 0.15	0.6292	0.6336	0.6367	0.6418	0.6473
348.7 K, w1 = 0.23	0.8925	0.8987	0.9053	0.9128	0.92
370.4 K, w1 = 0.23	–	0.6799	0.6864	0.6905	0.6997
371.95 K, w1 = 0.05	–	0.3317	0.335	0.3389	0.343
372.4 K, w1 = 0.1	–	0.3948	0.3979	0.3998	0.4062
372.8 K, w1 = 0.15	–	0.4705	0.4743	0.4795	0.484
372.9 K, w1 = 0.03	–	0.3096	0.3124	0.3164	0.3186
373.8 K, w1 = 0.015	–	0.2947	0.2994	0.3034	0.3065
373.9 K, w1 = 0.07	–	0.3482	0.3508	0.3546	0.359
374.5 K, w1 = 0.2	–	0.5699	0.5743	0.5799	0.5875
375.2 K, w1 = 0.26	–	0.7321	0.7395	0.7436	0.7535
395.4 K, w1 = 0.15	–	0.3731	0.3767	0.381	0.386
395.62 K, w1 = 0.05	–	0.2626	0.2668	0.2695	0.2716
397.1 K, w1 = 0.07	–	0.2772	0.2799	0.2834	0.287
397.21 K, w1 = 0.2	–	0.4505	0.454	0.4598	0.4654
398.4 K, w1 = 0.03	–	0.2422	0.2468	0.2494	0.251
398.72 K, w1 = 0.1	–	0.3052	0.3094	0.3132	0.3159
398.8 K, w1 = 0.23	–	0.5081	0.5124	0.5185	0.5253
399.01 K, w1 = 0.015	–	0.2321	0.2367	0.2398	0.2412
399.4 K, w1 = 0.26	–	0.5695	0.5739	0.58	0.5895
420.3 K, w1 = 0.2	–	0.3686	0.3729	0.3775	0.3826
421.3 K, w1 = 0.15	–	0.2998	0.3027	0.3087	0.3114
421.4 K, w1 = 0.1	–	0.2535	0.2565	0.2596	0.2635
421.5 K, w1 = 0.03	–	0.2013	0.2035	0.2068	0.209
422.51 K, w1 = 0.23	–	0.4132	0.4195	0.4254	0.43
422.61 K, w1 = 0.015	–	0.1927	0.1968	0.1999	0.2022
423.8 K, w1 = 0.26	–	0.4623	0.4688	0.4726	0.4803
424.67 K, w1 = 0.05	–	0.2079	0.2096	0.213	0.2164
425.6 K, w1 = 0.07	–	0.2211	0.2267	0.2293	0.23
444.81 K, w1 = 0.2	–	0.3083	0.3129	0.3175	0.3219
446.24 K, w1 = 0.05	–	0.1796	0.182	0.1853	0.1879
447 K, w1 = 0.07	–	0.1913	0.1946	0.1975	0.1998
447.2 K, w1 = 0.1	–	0.2125	0.2163	0.2189	0.2219
447.6 K, w1 = 0.015	–	0.1633	0.1684	0.17	0.1724
447.6 K, w1 = 0.15	–	0.2493	0.2551	0.2575	0.2603
447.6 K, w1 = 0.26	–	0.3901	0.3981	0.401	0.4047
447.81 K, w1 = 0.03	–	0.1686	0.1705	0.1734	0.1761
447.9 K, w1 = 0.23	–	0.3449	0.3498	0.3568	0.3609
470.16 K, w1 = 0.05	–	0.1564	0.1598	0.1629	0.1647
470.7 K, w1 = 0.015	–	0.1432	0.1468	0.1499	0.1508
471.31 K, w1 = 0.1	–	0.1847	0.1878	0.1904	0.1941
472 K, w1 = 0.23	–	0.2966	0.3024	0.3086	0.312
472.2 K, w1 = 0.07	–	0.1656	0.1689	0.1706	0.1739
472.3 K, w1 = 0.2	–	0.2608	0.2661	0.2699	0.2739
473.7 K, w1 = 0.03	–	0.1456	0.1486	0.1514	0.153
473.9 K, w1 = 0.26	–	0.3308	0.3354	0.3413	0.3476
473.93 K, w1 = 0.15	–	0.2133	0.2169	0.2199	0.224
496.34 K, w1 = 0.23	–	0.262	0.2695	0.2734	0.2776
497.1 K, w1 = 0.03	–	0.1296	0.1312	0.136	0.1375
497.19 K, w1 = 0.2	–	0.2292	0.2335	0.2387	0.2425
497.8 K, w1 = 0.15	–	0.1892	0.1945	0.1978	0.2001
498.22 K, w1 = 0.1	–	0.1618	0.1641	0.1678	0.1711
498.3 K, w1 = 0.015	–	0.1248	0.1286	0.1307	0.1325
498.7 K, w1 = 0.07	–	0.1451	0.1489	0.1506	0.1533
498.7 K, w1 = 0.26	–	0.2923	0.2976	0.3018	0.309
499.3 K, w1 = 0.05	–	0.1352	0.1363	0.1392	0.143
520.5 K, w1 = 0.26	–	0.2636	0.2691	0.2746	0.2813
520.51 K, w1 = 0.23	–	0.2338	0.2387	0.2415	0.249
520.64 K, w1 = 0.015	–	0.1128	0.1165	0.1191	0.1209
522.4 K, w1 = 0.15	–	0.1686	0.1709	0.1748	0.179
523.1 K, w1 = 0.07	–	0.1298	0.1324	0.1367	0.1385
523.3 K, w1 = 0.03	–	0.115	0.1169	0.1196	0.1219
523.8 K, w1 = 0.2	–	0.2021	0.2076	0.2105	0.216
524.7 K, w1 = 0.05	–	0.1204	0.1231	0.1267	0.1286
525.4 K, w1 = 0.1	–	0.143	0.1469	0.1493	0.1524
545.3 K, w1 = 0.05	–	0.1097	0.112	0.1143	0.1177
545.4 K, w1 = 0.2	–	0.184	0.1879	0.1923	0.1989
546.2 K, w1 = 0.07	–	0.1171	0.1197	0.1224	0.1267
547.7 K, w1 = 0.15	–	0.151	0.1548	0.1589	0.1634
547.9 K, w1 = 0.015	–	0.1	0.1025	0.1068	0.1089
547.9 K, w1 = 0.1	–	0.1296	0.1329	0.136	0.1399
548.7 K, w1 = 0.23	–	0.2061	0.2106	0.2186	0.223
549.9 K, w1 = 0.03	–	0.1023	0.1065	0.1086	0.1109
570.5 K, w1 = 0.15	–	0.1354	0.1399	0.1463	0.1496
572.62 K, w1 = 0.03	–	0.092	0.0967	0.0992	0.102
572.96 K, w1 = 0.05	–	0.0965	0.0998	0.1029	0.1066
573.2 K, w1 = 0.1	–	0.1143	0.1178	0.1204	0.1266
573.5 K, w1 = 0.07	–	0.1031	0.1068	0.1092	0.1143
